Laboratory results from ChEMBL document CHEMBL3244391, “Antiviral activity of aliphatic nucleoside analogues: structure-function relationship” (1979).

Tested on: Vaccinia virus
Experiment: Antiviral activity against Vaccinia virus infected in rabbit primary kidney cells assessed as inhibition of viral cytopathogenicity after 3 days
Format: functional, Orthopoxvirus vaccinia

| Compound | MID |
| --- | --- |
| CNc1ncnc2c1ncn2CC(O)CO (racemic) | >400 µg/mL |
| COCC(O)Cn1cnc2c(N)ncnc21 (racemic) | >400 µg/mL |
| Cc1cn(C[C@@H](O)CO)c(=O)[nH]c1=O | >400 µg/mL |
| Nc1ncnc2c1ncn2C[C@H](O)[C@H](O)CO | 200 µg/mL |
| Nc1ncnc2c1ncn2CCC(O)CCO (racemic) | >400 µg/mL |
| NCC(O)Cn1cnc2c(N)ncnc21 (racemic) | 400 µg/mL |
| Nc1nc(N)c2ncn(CC(O)CO)c2n1 (racemic) | >400 µg/mL |
| Nc1ncnc2c1nc(O)n2CC(O)CO (racemic) | >400 µg/mL |
| COC(CO)Cn1cnc2c(N)ncnc21 (racemic) | >400 µg/mL |
| Nc1nc2c(ncn2CC(O)CO)c(=O)[nH]1 (racemic) | >400 µg/mL |
| O=c1ccn(C[C@H](O)CO)c(=O)[nH]1 | >400 µg/mL |
| OCC(O)Cn1cnc2c(S)ncnc21 (racemic) | >400 µg/mL |
| CSc1nc(N)c2ncn(CC(O)CO)c2n1 (racemic) | 400 µg/mL |
| CC(C)(C)C(=O)OCC(Cn1cnc2c(N)ncnc21)OC(=O)C(C)(C)C (racemic) | 300 µg/mL |
| O=c1cnn(CC(O)CO)c(=O)[nH]1 (racemic) | >400 µg/mL |
| Nc1ncnc2c1ncn2CC[C@H](O)CO | 200 µg/mL |
| Nc1ncnc2c1ncn2C[C@@H](O)CO | >400 µg/mL |
| Nc1ncnc2c1ncn2[C@@H]1O[C@H](CO)[C@@H](O)[C@@H]1O [VIDARABINE] | 0.3 µg/mL |
| Nc1ncnc2c1ncn2C(CO)CO | >400 µg/mL |

| Compound | MID |
| --- | --- |
| Nc1ncnc2c1ncn2CCCO | 300 µg/mL |
| Nc1ncnc2c1ncn2CC(O)CO (racemic) | 40 µg/mL |
| Nc1ncnc2c1ncn2CCC(O)CO (racemic) | 100 µg/mL |
| [N-]=[N+]=NCC(Cn1cnc2c(N)ncnc21)N=[N+]=[N-] (racemic) | 150 µg/mL |
| CN(C)c1ncnc2c1ncn2CC(O)CO (racemic) | >400 µg/mL |
| OC[C@@H](O)Cn1cnc2c(O)ncnc21 | >400 µg/mL |
| Nc1ncnc2c1ncn2CCO | >400 µg/mL |
| Nc1ncnc2c1ncn2C[C@@H](O)[C@@H](O)CO | >400 µg/mL |
| Nc1ccn(CC(O)CO)c(=O)n1 (racemic) | >400 µg/mL |
| Cc1c[nH]c(=O)n(C[C@H](O)CO)c1=O | >400 µg/mL |
| CC(C)(C)C(=O)OCC(O)Cn1cnc2c(N)ncnc21 (racemic) | 300 µg/mL |
| Nc1ncnc2c1nc(S)n2CC(O)CO (racemic) | >400 µg/mL |
| O=c1ccn(CC[C@H](O)CO)c(=O)[nH]1 | >400 µg/mL |
| Nc1nc(O)c2c(ncn2CC(O)CO)n1 (racemic) | >400 µg/mL |
| COCC(Cn1cnc2c(N)ncnc21)OC (racemic) | >400 µg/mL |
| Nc1c2ncn(CC(O)CO)c2nc[n+]1[O-] (racemic) | >400 µg/mL |
| Nc1ncnc2c1ncn2C[C@H](O)CO [(S)-DHPA] | 10 µg/mL |
| [N-]=[N+]=NCC(O)Cn1cnc2c(N)ncnc21 (racemic) | >400 µg/mL |
| O=c1ccn(C[C@@H](O)[C@H](O)CO)c(=O)[nH]1 | >400 µg/mL |

| Compound | MID |
| --- | --- |
| O=c1ccn(CCC(O)CCO)c(=O)[nH]1 (racemic) | >400 µg/mL |
| Nc1ncnc2c1nc(Br)n2CC(O)CO (racemic) | >200 µg/mL |
| Nc1ccn([C@@H]2O[C@H](CO)[C@@H](O)[C@@H]2O)c(=O)n1 [CYTARABINE] | 0.02 µg/mL |
| O=c1[nH]c(=O)n([C@H]2C[C@H](O)[C@@H](CO)O2)cc1I [IDOXURIDINE] | 0.1 µg/mL |
| CCCCCCCCCCCCCCCC(=O)OCC(O)Cn1cnc2c(N)ncnc21 (racemic) | 100 µg/mL |
| CC(=O)OC[C@H](Cn1cnc2c(N)ncnc21)OC(C)=O | >400 µg/mL |
| Nc1ncnc2c1ncn2CC(N)CO (racemic) | >400 µg/mL |
| NCCn1cnc2c(N)ncnc21 | >400 µg/mL |
| C[C@@H](O)[C@@H](O)Cn1cnc2c(N)ncnc21 (racemic) | 150 µg/mL |
| Nc1ncnc2c1ncn2C[C@H](O)[C@@H](O)CO | >400 µg/mL |
| CC(O)Cn1cnc2c(N)ncnc21 (racemic) | >400 µg/mL |
| NCC(N)Cn1cnc2c(N)ncnc21 (racemic) | >400 µg/mL |
| Cc1cn(C[C@H](O)CO)c(=O)[nH]c1=O | >400 µg/mL |
| Nc1ncnc2c1ncn2CC(O)C(O)CO (racemic) | 400 µg/mL |
| O=c1ccn(C[C@H](O)[C@H](O)CO)c(=O)[nH]1 (racemic) | >400 µg/mL |
| O=c1ccn(CC(O)C(O)CO)c(=O)[nH]1 (racemic) | >400 µg/mL |
| CCC(=O)OCC(Cn1cnc2c(N)ncnc21)OC(=O)CC (racemic) | >400 µg/mL |
| Nc1ncnc2c1ncn2C[C@@H](O)[C@H](O)CO | >400 µg/mL |
